The values below come from ChEMBL document CHEMBL2417517, “Isolation, structures, and biological activities of triterpenoids from a Penares sp. marine sponge” (J Nat Prod, 2013).

SMILES strings stand for the structures.

This test deals with HL-60. As to the kind of experiment: Cytotoxicity against human HL60 cells after 46 hrs by MTS assay. It counts as functional, cell-based. As to conditions: HL-60, 46 h.

Compound `CC(C)=CCC[C@@H](C)[C@H]1CC[C@]23C(=O)O[C@]4(CC[C@]12C)C3=CC[C@H]1C(C)(C)[C@@H](O)CC[C@@]14C` gave an IC50 of 9.7 µM.
